# Reference: patent publication US8507674B2, “Quorum sensing inhibitor” (The University of Tokyo, priority 2007, dated 2013)
# Experiments:
# Burkholderia glumae [1] = assay: Test Example 5: onset of infection on rice, test liquid sprayed before infection; assay type: in vivo; settings: for percentage of flower clusters with score 0: score 0 = less than 0.1% diseased; for percentage of flower clusters with score 0 / percentage of flower clusters with score 1 / percentage of flower clusters with score 2 / percentage of flower clusters with score 3 / percentage of flower clusters with score 4 / percentage of flower clusters with score 5: rice, 7 days; for percentage of flower clusters with score 1: score 1 = 0.1-20% diseased; for percentage of flower clusters with score 2: score 2 = 20-40% diseased; for percentage of flower clusters with score 3: score 3 = 40-60% diseased; for percentage of flower clusters with score 4: score 4 = 60-80% diseased; for percentage of flower clusters with score 5: score 5 = 80-100% diseased
# Method: A dimethyl formamide solution (1,000 ppm) of Compound (1) was diluted with water to have a predetermined concentration (50, 100 or 200 μM) to prepare a test liquid. In a separate procedure, Burkholderia glumae were seeded to an LB culture medium and cultured overnight at 37° C., preparing a culture solution for infection.
# Each test liquid (10 mL) was sprayed onto Korean rice (Milyang 23) raised in a hothouse until the flowering stage. The culture solution for infection was sprayed onto the rice one hour after the application of the test liquid. After cultivation for seven days, the onset of Burkholderia glumae infection on the rice was evaluated.
# The evaluation was conducted by picking an ear from each plant, making a total of three ears. In each flower cluster (grain), the percentage of the portion that suffered from the onset of disease (i.e., the portion that turned brown) caused by the toxoflavin produced by Burkholderia glumae was visually observed and scored based on the scale shown below. The percentage of the total flower clusters was obtained and scored to indicate the onset of the disease.
# The percentage that suffered from the onset of disease:
# Not less than 0.1% and not greater than 20%: 1
# Not less than 20% and not greater than 40%: 2
# Not less than 40% and not greater than 60%: 3
# Not less than 60% and not greater than 80%: 4
# In this evaluation, three flower clusters (grains) having the same conditions were prepared, and reproducibility was confirmed by repeating the same evaluation three times. The same evaluation was also conducted as a comparative test except that water was used instead of the test liquid. Further, the same evaluation was conducted to serve as a blank except that water was used instead of both the test liquid and the culture solution for infection.
# Burkholderia glumae [2] = assay: Test Example 3: number of microorganisms versus culturing time and concentration; assay type: cell-based; settings: 80 μM or 100 μM, 20 to 40 hours culturing, FIG. 2
# Method: Burkholderia glumae was inoculated into an LB culture medium, and cultured at 37° C. overnight. The thus-obtained culture solution was subjected to bacterial collection using a centrifuge, washed with an LB culture medium twice using a fresh LB culture medium each time. To the bacterial cell a fresh LB culture medium was added to prepare a culture suspension of about 3.0×10^5 cfu/mL. Thereafter, Compound (1) produced in Production Example 1 was added to the culture suspension in such a manner that its final concentration became a predetermined value (i.e., 0 μM, 80 μM, or 100 μM), followed by shake culturing for 40 hours. The number of microorganisms in the culture solution after a predetermined time (i.e., 20, 24, 28, 32, 36 and 40 hours) was obtained by the following procedure. Specifically, a portion of the culture solution was removed and diluted 1,000-fold, and then seeded to an LB culture medium agar plate. The number of colonies was counted to obtain the number of microorganisms.
# [3] = 50 μM sprayed 1 h before infection
# [4] = 100 μM sprayed 1 h before infection
# [5] = 200 μM sprayed 1 h before infection
compound,measurement,setting,value
"CCCc1cc(=O)n2cccc(O)c2n1 [Compound (1), 2-n-propyl-9-hydroxy-4H-pyrid[1,2-a]pyrimidin-4-one]",percentage of flower clusters with score 0,Burkholderia glumae [1]; [3],68%
same,percentage of flower clusters with score 0,Burkholderia glumae [1]; [4],80%
same,percentage of flower clusters with score 0,Burkholderia glumae [1]; [5],82%
same,percentage of flower clusters with score 1,Burkholderia glumae [1]; [3],7%
same,percentage of flower clusters with score 1,Burkholderia glumae [1]; [4],6%
same,percentage of flower clusters with score 1,Burkholderia glumae [1]; [5],6%
same,percentage of flower clusters with score 2,Burkholderia glumae [1]; [3],6%
same,percentage of flower clusters with score 2,Burkholderia glumae [1]; [4],4%
same,percentage of flower clusters with score 2,Burkholderia glumae [1]; [5],6%
same,percentage of flower clusters with score 3,Burkholderia glumae [1]; [3],7%
same,percentage of flower clusters with score 3,Burkholderia glumae [1]; [4],3%
same,percentage of flower clusters with score 3,Burkholderia glumae [1]; [5],2%
same,percentage of flower clusters with score 4,Burkholderia glumae [1]; [3],6%
same,percentage of flower clusters with score 4,Burkholderia glumae [1]; [4],3%
same,percentage of flower clusters with score 4,Burkholderia glumae [1]; [5],2%
same,percentage of flower clusters with score 5,Burkholderia glumae [1]; [3],6%
same,percentage of flower clusters with score 5,Burkholderia glumae [1]; [4],4%
same,percentage of flower clusters with score 5,Burkholderia glumae [1]; [5],2%
same,onset of Burkholderia glumae on rice,"Burkholderia glumae [1]; test liquid 50, 100 or 200 μM sprayed before the culture solution for infection",prevented
same,control effect against Burkholderia glumae (number of microorganisms),Burkholderia glumae [2],excellent control effect
